Each structure is given as a SMILES string.

Data set [1] is described as follows: Stability comparison: HPLC purity of samples sealed in polyethylene bags in a constant-temperature-humidity chamber. It counts as physicochemical. The note with it: 25° C., RH 40%, sealed PE bag; for Decomposition rate on day 6: (initial sample purity−sample purity)/initial sample purity×100%. The procedure: The nicotinamide riboside hydrogen malate crystal obtained from the above Examples and Comparative Examples products was sealed in polyethylene (PE) bags, with 1 gram per bag. […] Samples were tested at regular intervals. Sample solution was prepared through the following steps. […] Then, the sample solution was filtered through a membrane, and the sample purity was determined using high performance liquid chromatography (HPLC).

Data set [2] can be described thus: Color change and hygroscopicity of products exposed to air (Karl Fischer moisture). It counts as physicochemical. The note with it: RH 40%. The procedure:
The nicotinamide riboside hydrogen malate crystal products obtained from the above Examples and Comparative Examples were respectively exposed to air (air humidity and temperature were controlled). […] Moisture (Karl Fischer) determination method was performed using an MC-2000 automatic micro-moisture analyzer from Mince Instruments (Xiamen) Co., Ltd., and a karl fischer reagent from Nanjing Chemical Reagent Co., Ltd.

The nature of data set [3]: Stability comparison: HPLC purity of samples in covered, sealed glass dishes in a constant-temperature-humidity chamber. The note with it: 25° C., relative humidity 40%; for Decomposition rate over 6 days: (initial sample purity−sample purity)/initial sample purity×100%; for Purity: sealed glass dish. The procedure: The nicotinamide riboside hydrogen malate crystal obtained herein and the commercially-available nicotinamide riboside hydrogen malate crystal samples (A and B) were each divided into seven portions and separately placed into seven glass sample dishes, with 1 g of sample in each dish. The dishes were covered and sealed. All the samples were stored in a constant-temperature-humidity chamber at 25° C. and a relative humidity of 40%. The purity of the samples was tested daily. The decomposition rate was calculated using the following formula: decomposition rate=(initial sample purity−sample purity)/initial sample purity×100%.
Product purity analysis was performed through the following steps. One packet of the sample was dissolved in a 5 mL or 10 mL volumetric flask to prepare a 5 mL or 10 mL sample solution. Then, the purity of the sample was determined using high performance liquid chromatography (HPLC).
The high performance liquid chromatography (HPLC) method parameters were as follows: isocratic elution with 5% water (0.1% formic acid) and 95% methanol (0.1% formic acid) as the mobile phase, a wavelength of 254 nm, a temperature of 23.0° C. with 54% relative humidity, samples dissolved in methanol, an ODS-2 column (4.6×250 mm, […]) with pressure maintained at 12-13 MPa, a flow rate of 1.0 mL/min, an injection volume of […] and a run time greater than or equal to 15 min.

The conditions of data set [4]: at 112-200° C., heating rate 10° C./min, nitrogen. The method, then:
Thermogravimetric analysis (TGA) was performed using a TGA55 instrument from TA Instruments, USA, with a temperature range of 14.8-300° C., a heating rate of 10° C./min and a nitrogen flow rate of 40 mL/min.

Consider `NC(=O)c1ccc[n+]([C@@H]2O[C@H](CO)[C@@H](O)[C@H]2O)c1.O=C(O)CC(O)C(=O)[O-]` [Example 2, nicotinamide riboside hydrogen malate], for which, in data set [1] (listed as EXAMPLE 2), the “Purity on day 6” value was 98.97%, the Initial purity came to 99.72% and the “Decomposition rate on day 6” value is recorded as 0.75%. This molecule registered a Product moisture in data set [2] (Day 0, 25° C., listed as EXAMPLE 2) of 0.28%. This molecule yielded a Product moisture in data set [2] (Day 6, 25° C., listed as EXAMPLE 2) of 3.1%.

Regarding `NC(=O)c1ccc[n+]([C@@H]2O[C@H](CO)[C@@H](O)[C@H]2O)c1.O=C(O)CC(O)C(=O)[O-]` [Example 5, nicotinamide riboside hydrogen malate], in data set [1] (listed as EXAMPLE 5), the “Purity on day 6” value is 99.15%, the Initial purity came to 99.78% and the “Decomposition rate on day 6” value is recorded as 0.63%. The molecule further showed a Product moisture in data set [2] (Day 0, 25° C., listed as EXAMPLE 5) of 0.31%. For the same molecule, in data set [2] (Day 6, 25° C., listed as EXAMPLE 5), the Product moisture was 2.9%.

In the case of `NC(=O)c1ccc[n+]([C@@H]2O[C@H](CO)[C@@H](O)[C@H]2O)c1.O=C(O)CC(O)C(=O)[O-]` [Example 3, nicotinamide riboside hydrogen malate], in data set [1] (listed as EXAMPLE 3), the “Purity on day 6” value came to 98.95%, the Initial purity was 99.69% and the “Decomposition rate on day 6” value is 0.74%. The Product appearance result in data set [2] (Day 0, 25° C.) is recorded as “White”. Further, the Product moisture in data set [2] (Day 0, 25° C., listed as EXAMPLE 3) is listed as 0.30%. In addition, the Product appearance result in data set [2] (Day 6, 25° C.) was “White”. The molecule further showed a Product moisture in data set [2] (Day 6, 25° C., listed as EXAMPLE 3) of 2.4%.

`NC(=O)c1ccc[n+]([C@@H]2O[C@H](CO)[C@@H](O)[C@H]2O)c1.O=C(O)CC(O)C(=O)[O-]` [Commercially-available product A, nicotinamide riboside hydrogen malate]: the “Decomposition rate over 6 days” value in data set [3] turned out to be 8.37%. The Purity in data set [3] (day 0) is on record as 99.900%; in data set [3] (day 1), 98.355%; in data set [3] (day 2), 96.843%; in data set [3] (day 3), 95.752%; in data set [3] (day 4), 94.185%; in data set [3] (day 5) it was 93.250%. For the same molecule, the Purity in data set [3] (day 6) came to 91.538%.

As to `NC(=O)c1ccc[n+]([C@@H]2O[C@H](CO)[C@@H](O)[C@H]2O)c1.O=C(O)CC(O)C(=O)[O-]` [Commercially-available product B, nicotinamide riboside hydrogen malate], the “Decomposition rate over 6 days” value in data set [3] was 4.77%. Besides, the Purity came out at 99.750% in data set [3] (day 0); 98.843% in data set [3] (day 1); 98.310% in data set [3] (day 2); 97.982% in data set [3] (day 3); 96.530% in data set [3] (day 4); 95.020% in data set [3] (day 5). The Purity in data set [3] (day 6) turned out to be 94.989%.

Take `NC(=O)c1ccc[n+]([C@@H]2O[C@H](CO)[C@@H](O)[C@H]2O)c1.O=C(O)CC(O)C(=O)[O-]` [Example 6, nicotinamide riboside hydrogen malate]: in data set [1] (listed as EXAMPLE 6), the “Purity on day 6” value is on record as 99.11%, the Initial purity is 99.81% and the “Decomposition rate on day 6” value was found to be 0.70%. Besides, in data set [2] (Day 0, 25° C., listed as EXAMPLE 6), the Product moisture is on record as 0.29%. For the same molecule, the Product moisture in data set [2] (Day 6, 25° C., listed as EXAMPLE 6) amounted to 3.2%.

Take `NC(=O)c1ccc[n+]([C@@H]2O[C@H](CO)[C@@H](O)[C@H]2O)c1.O=C(O)CC(O)C(=O)[O-]` [Example 1, nicotinamide riboside hydrogen malate]: the “Weight loss (TGA)” value in data set [4] is listed as 1-33%. For the same molecule, the “Purity on day 6” value in data set [1] (listed as EXAMPLE 1) was found to be 99.65%. The molecule further showed an Initial purity in data set [1] (listed as EXAMPLE 1) of 99.67%. The “Decomposition rate on day 6” value in data set [1] (listed as EXAMPLE 1) was determined as 0.72%. The Product moisture in data set [2] (Day 0, 25° C., listed as EXAMPLE 1) came out at 0.30%; in data set [2] (Day 6, 25° C., listed as EXAMPLE 1), 2%. In addition, in data set [3] (6 days), the “Stability compared to the commercially-available products” value is reported as “better stability”. The “Decomposition rate over 6 days” value in data set [3] (listed as Product of Example 1) stood at 0.759%. Further, the Purity is on record as 99.576% in data set [3] (day 0, listed as Product of Example 1); 99.553% in data set [3] (day 1, listed as Product of Example 1); 99.494% in data set [3] (day 2, listed as Product of Example 1); 99.510% in data set [3] (day 3, listed as Product of Example 1); 99.518% in data set [3] (day 4, listed as Product of Example 1); 99.499% in data set [3] (day 5, listed as Product of Example 1). In data set [3] (day 6, listed as Product of Example 1), this molecule displayed a Purity of 98.820%.

`NC(=O)c1ccc[n+]([C@@H]2O[C@H](CO)[C@@H](O)[C@H]2O)c1.O=C(O)CC(O)C(=O)[O-]` [Example 4, nicotinamide riboside hydrogen malate]: in data set [1] (listed as EXAMPLE 4), the “Purity on day 6” value amounted to 98.79%, the Initial purity is listed as 99.51% and the “Decomposition rate on day 6” value is 0.72%. The molecule also gave a Product moisture in data set [2] (Day 0, 25° C., listed as EXAMPLE 4) of 0.22%. Moreover, in data set [2] (Day 6, 25° C., listed as EXAMPLE 4), the Product moisture is given as 1.8%.
